These results are taken from BindingDB's records for patent US20250154134 (Wigen Biomedicine Technology (Shanghai), 2025).

In the experiment the target is Focal adhesion kinase 1 (Homo sapiens, UniProt Q05397). Kind of experiment: Inhibitory Activity Assay. The procedure: A compound serially diluted with DMSO was mixed with a FAK recombinant protein. After the mixture was left to stand at room temperature for 10 min, a biotin-labeled TK substrate (TK) and ATP were added. […] The inhibition percentage and IC50 of the compound were calculated compared to the DMSO control group.
Focal adhesion kinase 1, sequence (Q05397 whole entry): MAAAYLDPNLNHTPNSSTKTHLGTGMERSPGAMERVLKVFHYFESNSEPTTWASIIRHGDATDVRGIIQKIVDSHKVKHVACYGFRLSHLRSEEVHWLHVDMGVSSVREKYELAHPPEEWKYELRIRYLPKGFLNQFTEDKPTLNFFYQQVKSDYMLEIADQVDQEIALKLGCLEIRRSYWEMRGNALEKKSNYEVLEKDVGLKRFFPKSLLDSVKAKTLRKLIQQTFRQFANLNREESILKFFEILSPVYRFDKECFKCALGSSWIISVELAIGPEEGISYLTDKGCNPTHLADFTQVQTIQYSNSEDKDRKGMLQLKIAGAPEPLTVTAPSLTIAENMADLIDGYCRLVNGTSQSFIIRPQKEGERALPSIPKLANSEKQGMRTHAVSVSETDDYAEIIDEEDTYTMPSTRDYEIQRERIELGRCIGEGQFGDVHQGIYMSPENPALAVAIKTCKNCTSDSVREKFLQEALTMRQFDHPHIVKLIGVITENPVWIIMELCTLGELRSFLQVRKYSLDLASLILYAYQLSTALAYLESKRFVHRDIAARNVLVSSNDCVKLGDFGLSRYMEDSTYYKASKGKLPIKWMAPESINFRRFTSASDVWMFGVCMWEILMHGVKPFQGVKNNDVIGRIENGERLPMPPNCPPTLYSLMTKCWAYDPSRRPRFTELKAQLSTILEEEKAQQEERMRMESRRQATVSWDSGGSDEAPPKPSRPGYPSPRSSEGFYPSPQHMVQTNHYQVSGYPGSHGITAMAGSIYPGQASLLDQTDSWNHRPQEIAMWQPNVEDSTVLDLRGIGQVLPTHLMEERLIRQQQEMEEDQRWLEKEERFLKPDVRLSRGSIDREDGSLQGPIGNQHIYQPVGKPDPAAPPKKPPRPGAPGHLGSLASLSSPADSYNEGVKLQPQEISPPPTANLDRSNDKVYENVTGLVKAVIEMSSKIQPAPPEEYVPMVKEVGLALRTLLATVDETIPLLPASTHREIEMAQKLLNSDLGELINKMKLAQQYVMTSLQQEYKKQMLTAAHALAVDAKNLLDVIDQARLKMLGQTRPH

As for `COc1cc(C(=O)NC2CCN(C)CC2)ccc1Nc1ncc(C(F)(F)F)c(Oc2cccc3c2C(=O)N(C)C32CC2)n1` [US20250154134, Compound 3], the IC50 (in general, the midpoint of a concentration-inhibition curve) is less than 0.02 µM.

With `COc1cc(C(=O)NC2CCNCC2)ccc1Nc1ncc(C(F)(F)F)c(Oc2cccc3c2C(=O)N(C)C32CC2)n1` [US20250154134, Compound 35], the IC50 was less than 0.02 µM.

`COc1cc(C(=O)NC2(C)CCN(C)CC2)ccc1Nc1ncc(Cl)c(Oc2cccc3c2C(=O)N(C)C32CC2)n1` [US20250154134, Compound 118] registered a half-inhibitory concentration (IC50) of less than 0.02 µM.

Molecule `COc1cc(C(=O)NC2CCN(C)CC2)c(F)cc1Nc1ncc(Cl)c(Oc2cccc3c2C(=O)N(C)C32CCCC2)n1` [US20250154134, Compound 209] yielded a 50% inhibitory concentration (IC50) of less than 0.02 µM.
